Assay results from PMC4230943, “Mimicking Hypoxia to Treat Anemia: HIF-Stabilizer BAY 85-3934 (Molidustat) Stimulates Erythropoietin Production without Hypertensive Effects” (PLoS ONE, 2014).

Legend:
[1] = test system: male Wistar rats treated with gentamicin; assay: Gentamicin-induced kidney failure (renal anemia) model; assay type: in vivo, rat
Description: Male Wistar rats were treated once daily with gentamicin (Gibco/Invitrogen) at a dose of 100 mg/kg body weight via i.p. injection on 14 consecutive days, [35]. Control animals received injections of an equal volume of 0.9% saline. After gentamicin treatment, PCV was determined and animals were distributed to the vehicle or treatment groups with respect to equal mean PCV. On day 15, BAY 85-3934 was given orally once daily at doses of 1 mg/kg, 2.5 mg/kg, 5.0 mg/kg, and 10.0 mg/kg, five times weekly.
EPO was measured in plasma samples taken from rodents using a commercial ELISA kit (R&D Systems), according to the manufacturer’s instructions. Relative plasma EPO levels were given in picograms per milliliter. In cynomolgus monkeys, EPO was measured using a combination anti-human EPO ELISAs (R&D Systems and Roche Diagnostics), with human EPO as a standard. Values were given as units per liter. For determination of plasma prorenin from rats, a commercial ELISA (Oxford Biomedical Research) was used according to the manufacturer’s instructions. Hemoglobin in rodent blood samples was determined on a Cell-Dyn 3700 apparatus (Abbott Diagnostics). BAY 85-3934 plasma concentrations were determined after protein precipitation with acetonitrile/ammonium acetate using an internal standard, followed by separation using HPLC/mass spectrometry.
Total RNA was extracted from shock-frozen cell or tissue samples using the TRIzol method. Integrity of obtained RNA was checked on a Bioanalyzer (Agilent Technologies). For reverse transcription, 1 µg of total RNA was digested with RNase-free DNase I (Gibco) for 15 min at room temperature, and then reverse-transcribed using Promiscript (Promega GmbH) in a total reaction volume of 40 µl according to the standard protocol of the supplier. After inactivation of the enzyme by heating to 65°C for 15 min, the obtained cDNA was diluted to a final volume of 150 µl with double-distilled water, and 4 µl used per PCR reaction. qRT-PCR, including normalization of raw data to cytosolic β-actin, was carried out as described previously. The resulting expression is given in arbitrary units.
The effect of BAY 85-3934 on the induction of endogenous EPO production was evaluated in an animal model of impaired kidney function, the gentamicin-induced kidney failure model. A mean creatinine clearance of 30% of that of untreated animals and high expression levels of several markers of acute and chronic kidney injury were indicative of substantial renal impairment in these animals. […] The mean absolute levels of induction were lower in the gentamicin-treated animals than in the controls.

male Wistar rats = assay: Single oral dose: plasma EPO and reticulocytes in healthy rats; assay type: in vivo, rat
Description: Male Wistar rats (240–340 g in body weight) were housed with five animals per cage for at least 1 week before experimentation. Blood samples from rats were collected under anesthesia (2% isoflurane in air) by puncturing the retro-orbital vein plexus with a glass capillary. […] The number of reticulocytes in 5 µl blood was counted after staining with thiazol orange (Becton Dickinson) according to the manufacturer’s instructions by FACS analysis on a BD FACSCalibur system (Becton Dickinson). […] The time-course of induction of EPO mRNA expression and plasma EPO was determined at baseline and 0.5 h, 1 h, 2 h, 4 h, 6 h, and 8 h after oral administration of a single dose of BAY 85-3934 (5 mg/kg). EPO was measured in plasma samples taken from rodents using a commercial ELISA kit (R&D Systems), according to the manufacturer’s instructions. Relative plasma EPO levels were given in picograms per milliliter. […] Experiments were conducted in male Wistar rats to assess the threshold doses for EPO induction and the erythropoietic activity of BAY 85-3934.

PHD2 = molecular target: T1, PHD2 (Homo sapiens, UniProt Q9GZT9); assay: Prolyl hydroxylase assay (Eu-VBC binding to hydroxylated HIF-1α 556–574 peptide); assay type: biochemical
T1 construct: made in house; host or cells: Sf9 insect cells (baculovirus, pBacPAC transfer vectors)

PHD1 = molecular target: T2, PHD1 (Homo sapiens, UniProt Q96KS0); assay: as above; assay type: biochemical; details: 20 µM 2-oxoglutarate, 10 µM Fe2+, 2 mM ascorbate
T2 construct: made in house; host or cells: Sf9 insect cells (baculovirus, pBacPAC transfer vectors)
Description: (§1) Recombinant human HIF-PHs were purified from Sf9 insect cell lysates. After infection with the recombinant virus stocks, generated via cloning of the respective cDNAs into pBacPAC transfer vectors (Clontech Laboratories), Sf9 cells were incubated for 48 h at 27°C with continuous shaking. Expression of the recombinant protein was confirmed by SDS-PAGE and western blot analysis of the expressed proteins. The lysate was centrifuged at 75,000 g at 4°C for 30 min and the supernatant containing the soluble HIF-PHs was incubated for 1 h at 2–8°C with CM Sepharose. After several wash steps, bound proteins were eluted from Sepharose using a linear NaCl gradient. […]
(§2) Hydroxylated biotinyl-HIF-1α 556–574 was incubated with Eu-VBC in 100 µl binding buffer (50 mM Tris [pH 7.5], 120 mM NaCl) for 60 min at room temperature. After washing six times with DELFIA wash buffer (PerkinElmer) and adding 100 µl enhancer solution (PerkinElmer), the amount of bound VBC was determined by measuring time-resolved fluorescence with a Tecan infinite M200 plate reader. Measurements were taken in triplicate or more, and results were expressed as means ± SEM. IC50 values were determined after curve fitting using GraphPad Prism software (GraphPad Software, La Jolla, CA, USA) applying the four-parameter logistic equation to the data sets. […]

PHD3 = molecular target: T3, PHD3 (Homo sapiens, UniProt Q9H6Z9); assay: as above; assay type: biochemical; details: 20 µM 2-oxoglutarate, 10 µM Fe2+, 2 mM ascorbate
T3 construct: made in house; host or cells: Sf9 insect cells (baculovirus, pBacPAC transfer vectors)
Description: as §1, §2

T1 sequence (Q9GZT9 whole entry): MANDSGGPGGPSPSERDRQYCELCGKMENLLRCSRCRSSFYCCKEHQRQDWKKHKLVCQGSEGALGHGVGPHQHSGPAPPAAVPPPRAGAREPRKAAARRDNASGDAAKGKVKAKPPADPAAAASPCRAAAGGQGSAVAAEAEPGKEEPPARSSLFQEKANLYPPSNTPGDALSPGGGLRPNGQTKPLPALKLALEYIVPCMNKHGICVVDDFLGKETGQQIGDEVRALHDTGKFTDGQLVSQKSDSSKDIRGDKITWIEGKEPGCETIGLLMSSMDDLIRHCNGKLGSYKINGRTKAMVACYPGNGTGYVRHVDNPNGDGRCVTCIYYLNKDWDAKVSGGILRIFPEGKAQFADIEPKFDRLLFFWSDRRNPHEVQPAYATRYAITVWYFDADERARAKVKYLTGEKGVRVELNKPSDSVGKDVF
T3 sequence (Q9H6Z9 whole entry): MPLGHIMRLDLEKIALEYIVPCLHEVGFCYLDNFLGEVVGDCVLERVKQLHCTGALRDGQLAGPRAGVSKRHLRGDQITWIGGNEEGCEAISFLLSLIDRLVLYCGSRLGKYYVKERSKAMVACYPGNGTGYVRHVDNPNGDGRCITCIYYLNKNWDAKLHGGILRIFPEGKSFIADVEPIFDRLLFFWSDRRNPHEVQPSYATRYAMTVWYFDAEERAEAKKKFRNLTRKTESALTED
T2 sequence (Q96KS0 whole entry): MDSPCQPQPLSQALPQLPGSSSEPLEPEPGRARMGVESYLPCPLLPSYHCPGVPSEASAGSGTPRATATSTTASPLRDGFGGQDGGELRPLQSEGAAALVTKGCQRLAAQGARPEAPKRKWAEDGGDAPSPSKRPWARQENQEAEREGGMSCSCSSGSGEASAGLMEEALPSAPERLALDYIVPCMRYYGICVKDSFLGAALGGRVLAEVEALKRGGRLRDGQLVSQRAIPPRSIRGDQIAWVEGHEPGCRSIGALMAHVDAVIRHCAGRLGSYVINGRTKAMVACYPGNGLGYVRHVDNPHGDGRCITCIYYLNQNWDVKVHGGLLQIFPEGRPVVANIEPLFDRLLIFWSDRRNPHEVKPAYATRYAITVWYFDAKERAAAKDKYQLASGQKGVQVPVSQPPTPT

For `O=c1c(-n2ccnn2)c[nH]n1-c1cc(N2CCOCC2)ncn1` [BAY 85-3934, 2-[6-(morpholin-4-yl)pyrimidin-4-yl]-4-(1H-1,2,3-triazol-1-yl)-1,2-dihydro-3H-pyrazol-3-one], the “time after onset of treatment for mean PCV to return to baseline” value ([1]; 2.5 mg/kg) was at most 2 weeks, the “mean PCV” value ([1]; 5 mg/kg and 10 mg/kg, 5 days per week, final values higher than control, p<0.001) was “prevented the decline in mean PCV” and the “kidney EPO mRNA expression” value ([1]; 4 h after oral administration) was “increased dose-dependently”. For the same compound, the “plasma EPO levels” value ([1]; 4 h after oral administration) was “significantly and dose-dependently induced”, the hemoglobin values ([1]; 7 days after the start of treatment) was “significant dose-dependent increase” and the reticulocyte counts ([1]; all doses, data not shown) was “increase in reticulocyte counts”. The “doses giving significant induction of liver EPO mRNA” value ([1]; control group (no gentamicin)) was at least 2.5 mg/kg, the “doses giving significant induction of liver EPO mRNA” value ([1]; gentamicin-treated animals) was at least 5 mg/kg and the “expression of other HIF target genes in kidney and liver” value ([1]; oral administration) was “no dose-response”. The “time for which maximal plasma EPO concentrations were maintained” value (male Wistar rats; doses of 500 mg/kg and above) was “over 48 h”, the “doses giving maximal EPO induction” value (male Wistar rats; single oral administration, data not shown) was at least 500 mg/kg and the “doses giving statistically significant EPO induction” value (male Wistar rats; single oral administration, plasma EPO at 4 h) was at least 1.25 mg/kg. The “doses giving a dose-dependent increase in the proportion of reticulocytes” value (male Wistar rats; single oral dose, 72 h) was at least 1.25 mg/kg, the IC50 (PHD2; 20 µM 2-oxoglutarate, 10 µM Fe2+, 2 mM ascorbate) was 280 nM and the “increase of potency on lowering 2-oxoglutarate” value (PHD2; 2-oxoglutarate lowered from 20 µM to 0.3 µM (Fig. 1A)) was “up to 10 fold”. For the same compound, the “alteration of potency on varying Fe2+ and ascorbate” value (PHD2; Fe2+ and ascorbate varied by factors of 30 and 200 (Fig. 1B, C)) was at most 2 fold, the IC50 (PHD1) was 480 nM and the IC50 (PHD3) was 450 nM.
